Assay results reported in publication PMC11538350, “Synthetic studies on the tetrasubstituted D-ring of cystobactamids lead to potent terephthalic acid antibiotics” (Communications Chemistry, 2024).
In brackets after ≈: the same amount, converted by molar mass.

How the values were obtained:
Assay in all cases: MIC assay
K. pneum. KP10581 = format: cell-based; details: Klebsiella pneumoniae; read-out: MIC K. pneum. KP10581
Protocol: (§1) All cystobactamids were evaluated in MIC-assays on a panel of representative ESKAPE strains with focus on A. baumannii (Tables 1 and 2). Compared to our previous work[10],[17],[18], we specifically included more challenging test strains with known resistances against gyrase inhibitors.
(§2) 2.1 Materials and Methods
(§3) Strains were cultivated according to standard procedures. Bacterial cryo-cultures were
(§4) resuspended into fresh MHBII (cation adjusted) medium. The resuspension
(§5) assay plate (Corning, #3788).
(§6) in parallel as a positive control. […]

A. baum. CIP-107292 = format: cell-based; details: Acinetobacter baumannii, CIP107292; read-out: MIC A. baum. CIP-107292
Protocol: as §1, §2, §3, §4, §5, §6

E. cloacae ATCC BAA-2468 = format: cell-based; details: Enterobacter cloacae, ATCCBAA2468; read-out: MIC E. cloacae ATCC BAA-2468
Protocol: as §1, §2, §3, §4, §5, §6

A. baum. ATCC BAA-1710 = format: cell-based; details: Acinetobacter baumannii, ATCCBAA1710; read-out: MIC A. baum. ATCC BAA-1710
Protocol: as §1, §2, §3, §4, §5, §6

K. pneum. R-1525 = format: cell-based; details: Klebsiella pneumoniae; read-out: MIC K. pneum. R-1525
Protocol: as §1, §2, §3, §4, §5, §6

A. baum. R835 = format: cell-based; details: Acinetobacter baumannii; read-out: MIC A. baum. R835
Protocol: as §1, §2, §3, §4, §5, §6

E. coli LM705 = format: cell-based; details: Escherichia coli, LM705, read-out: MIC E. coli LM705
Protocol: as §1, §2, §3, §4, §5, §6

[1] = system: S. pneum. DSM-11865 (PRSP); format: cell-based; details: Streptococcus pneumoniae; read-out: MIC S. pneum. DSM-11865 (PRSP)
Protocol: as §1, §2, §3, §4, §5, §6

S. aur. ATCC-29213 = format: cell-based; details: Staphylococcus aureus, ATCC29213; reference strain; read-out: MIC S. aur. ATCC-29213
Protocol: as §1, §2, §3, §4, §5, §6

E. coli ATCC-25922 = format: cell-based; details: Escherichia coli, ATCC25922; reference strain; read-out: MIC E. coli ATCC-25922
Protocol: as §1, §2, §3, §4, §5, §6

E. ae. CIP 106754 = format: cell-based, Enterobacter aerogenes; details: Klebsiella aerogenes, CIP106754, read-out: MIC E. ae. CIP 106754
Protocol: as §1, §2, §3, §4, §5, §6

P. ae. PA14ΔmexAB = format: cell-based; details: Pseudomonas aeruginosa, read-out: MIC P. ae. PA14ΔmexAB
Protocol: as §1, §2, §3, §4, §5, §6

A. baum. CIP-105742 = format: cell-based; details: Acinetobacter baumannii, CIP105742; read-out: MIC A. baum. CIP-105742
Protocol: as §1, §2, §3, §4, §5, §6

A. baum. DSM-30008 = format: cell-based; details: Acinetobacter baumannii, DSM30008; reference strain; read-out: MIC A. baum. DSM-30008
Protocol: as §1, §2, §3, §4, §5, §6

P. ae. PA14 = format: cell-based; details: Pseudomonas aeruginosa, PA14; reference strain; read-out: MIC P. ae. PA14
Protocol: as §1, §2, §3, §4, §5, §6

K. pneum. CIP-104298 = format: cell-based; details: Klebsiella pneumoniae, CIP104298; reference strain; read-out: MIC K. pneum. CIP-104298
Protocol: as §1, §2, §3, §4, §5, §6

E. faec. DSM-17050 (VRE) = format: cell-based, Enterococcus faecium; details: Enterococcus; read-out: MIC E. faec. DSM-17050 (VRE)
Protocol: as §1, §2, §3, §4, §5, §6

| SMILES | MIC (K. pneum. KP10581) | MIC (A. baum. CIP-107292) | MIC (E. cloacae ATCC BAA-2468) | MIC (A. baum. ATCC BAA-1710) | MIC (K. pneum. R-1525) | MIC (A. baum. R835) | MIC (E. coli LM705) | MIC [1] | MIC (S. aur. ATCC-29213) | MIC (E. coli ATCC-25922) | MIC (E. ae. CIP 106754) | MIC (P. ae. PA14ΔmexAB) | MIC (A. baum. CIP-105742) | MIC (A. baum. DSM-30008) | MIC (P. ae. PA14) | MIC (K. pneum. CIP-104298) | MIC (E. faec. DSM-17050 (VRE)) |
| --- | --- | --- | --- | --- | --- | --- | --- | --- | --- | --- | --- | --- | --- | --- | --- | --- | --- |
| C#CC[C@H](NC(=O)c1ccc(NC(=O)c2ccc(C#N)cc2)cc1)C(=O)Nc1ccc(C(=O)Nc2ccc(C(=O)Nc3ccc(C(=O)O)cc3)c(O)c2OC)cc1 [Cmpd. 10] | 1 µg/mL (≈ 1.31 µM) | 4 µg/mL (≈ 5.23 µM) | 16 µg/mL (≈ 20.9 µM) | 0.25 µg/mL (≈ 0.327 µM) | 32 µg/mL (≈ 41.8 µM) | 4 µg/mL (≈ 5.23 µM) | < 0.03 µg/mL | < 0.03 µg/mL | 0.5 µg/mL (≈ 0.654 µM) | < 0.03 µg/mL | 4 µg/mL (≈ 5.23 µM) | – | – | – | – | – | – |
| C#CC[C@H](NC(=O)c1ccc(NC(=O)c2ccc(C#N)cc2)cc1)C(=O)Nc1ccc(CNc2ccc(C(=O)Nc3ccc(C(=O)O)cc3)c(O)c2OC(C)C)cc1 [Cmpd. 40] | 1 µg/mL (≈ 1.28 µM) | > 8 µg/mL | > 64 µg/mL | 0.5 µg/mL (≈ 0.642 µM) | > 64 µg/mL | > 8 µg/mL | > 64 µg/mL | > 64 µg/mL | 0.5 to 1 µg/mL (≈ 0.642 to 1.28 µM) | 0.5 to 1 µg/mL (≈ 0.642 to 1.28 µM) | > 64 µg/mL | 2 µg/mL (≈ 2.57 µM) | 0.25 µg/mL (≈ 0.321 µM) | 0.5 µg/mL (≈ 0.642 µM) | > 64 µg/mL | > 64 µg/mL | 0.25 µg/mL (≈ 0.321 µM) |
| C#CC[C@H](NC(=O)c1ccc(NC(=O)c2ccc(C#N)cc2)cc1)C(=O)Nc1ccc(C(=O)Nc2ccc3c(=O)n(-c4ccc(C(=O)O)cc4)c(C)nc3c2OC(C)C)cc1 [Cmpd. 45a] | 4 µg/mL (≈ 4.9 µM) | > 8 µg/mL | > 64 µg/mL | 0.5 to 1 µg/mL (≈ 0.613 to 1.23 µM) | > 64 µg/mL | > 8 µg/mL | > 64 µg/mL | > 64 µg/mL | 4 µg/mL (≈ 4.9 µM) | 2 to 4 µg/mL (≈ 2.45 to 4.9 µM) | > 64 µg/mL | 16 to 32 µg/mL (≈ 19.6 to 39.2 µM) | 4 µg/mL (≈ 4.9 µM) | 8 µg/mL (≈ 9.81 µM) | > 64 µg/mL | > 64 µg/mL | 2 to 4 µg/mL (≈ 2.45 to 4.9 µM) |
| C#CC[C@H](NC(=O)c1ccc(NC(=O)c2ccc(C#N)cc2)cc1)C(=O)Nc1ccc(C(=O)Nc2ccc3c(=O)n(-c4ccc(C(=O)O)cc4)cnc3c2OC(C)C)cc1 [Cmpd. 45b] | 16 µg/mL (≈ 20 µM) | > 8 µg/mL | > 64 µg/mL | > 8 µg/mL | > 64 µg/mL | > 8 µg/mL | > 64 µg/mL | > 64 µg/mL | 8 µg/mL (≈ 9.98 µM) | 1 µg/mL (≈ 1.25 µM) | > 64 µg/mL | > 64 µg/mL | 2 µg/mL (≈ 2.49 µM) | 1 to 2 µg/mL (≈ 1.25 to 2.49 µM) | > 64 µg/mL | > 64 µg/mL | 1 µg/mL (≈ 1.25 µM) |
| CO[C@@H](C(N)=O)[C@H](NC(=O)c1ccc(NC(=O)c2ccc(C#N)cc2)cc1)C(=O)Nc1ccc(C(=O)Nc2ccc(C(=O)N(C)c3ccc(C(=O)O)cc3)c(O)c2OC(C)C)cc1 [Cmpd. 46] | > 64 µg/mL | > 8 µg/mL | > 64 µg/mL | > 8 µg/mL | > 64 µg/mL | > 8 µg/mL | > 64 µg/mL | > 64 µg/mL | > 64 µg/mL | < 0.03 µg/mL | > 64 µg/mL | > 64 µg/mL | > 8 µg/mL | > 8 µg/mL | > 64 µg/mL | > 64 µg/mL | > 64 µg/mL |
| C#CC[C@H](NC(=O)c1ccc(NC(=O)c2ccc(C#N)cc2)cc1)C(=O)Nc1ccc(C(=O)Nc2ccc(-c3ncc4cc(C(=O)O)ccc4n3)c(O)c2OC(C)C)cc1 [Cmpd. 47] | > 64 µg/mL | > 64 µg/mL | – | – | – | > 64 µg/mL | > 64 µg/mL | – | > 64 µg/mL | – | – | > 64 µg/mL | > 64 µg/mL | > 64 µg/mL | > 64 µg/mL | > 64 µg/mL | – |
| C#CC[C@H](NC(=O)c1ccc(NC(=O)c2ccc(C#N)cc2)cc1)C(=O)Nc1ccc(C(=O)Nc2ccc(-c3nc4ccc(C(=O)O)cc4[nH]3)c(O)c2OC(C)C)cc1 [Cmpd. 48] | 16 µg/mL (≈ 20.3 µM) | > 8 µg/mL | > 64 µg/mL | > 8 µg/mL | > 64 µg/mL | > 8 µg/mL | > 64 µg/mL | > 64 µg/mL | 4 µg/mL (≈ 5.06 µM) | 64 µg/mL (≈ 81 µM) | > 64 µg/mL | > 64 µg/mL | > 8 µg/mL | 8 µg/mL (≈ 10.1 µM) | > 64 µg/mL | > 64 µg/mL | 2 µg/mL (≈ 2.53 µM) |
